From US20210308308A1, “SYRINGE AND KIT FOR INTRAVESICAL USE” (Farco-Pharma GmbH, priority 2020, published 2021)
Structures can show the parent of a compound that is named as a salt.

Test: stability of oxybutynin hydrochloride composition during terminal vapor sterilization in prefilled piston syringes

SMILES: CCN(CC)CC#CCOC(=O)C(O)(c1ccccc1)C1CCCCC1 (centres unmarked) [oxybutynin hydrochloride, 4-diethylaminobut-2-inyl-2-cyclohexyl-2-hydroxy-2-phenyl ethanoate]
- further impurities after vapor sterilization (1 mg/ml, pH 4.0, polypropylene syringes with piston plugs of conventional rubber material, vapor sterilization): exceeding 0.5%
- stability during thermal sterilization (in words) (aqueous composition, polypropylene (disposable) syringes, piston plugs and closing caps of commonly used rubber materials): high instability or incompatibility
